Our source for the T/C values is PubChem BioAssay AID192 (DTP/NCI, 2004).

Values joined by “and” are separate entries in the source; they are usually repeats but may differ in a detail not shown here. Equal entries are not always repeated. Inconclusive results and toxic doses are left out.

The subject of the assay is BDF1 mice, B16 melanoma ip, median survival T/C. The experiment in a line: NCI In Vivo Anticancer Drug Screen. Data for tumor model B16 Melanoma (intraperitoneal) in B6D2F1 (BDF1) mice. To be noted: endpoint: median survival time, higher = longer survival. An outline of the steps: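 The ratio T/C compares compound-treated mice with vehicle-treated controls, using survival or tumor size as the endpoint in a transplantable tumor model.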

[1] abbreviates: dose: 12.5 mg/kg/injection, schedule: Q01DX009 (ip), vehicle: saline with Tween-80.
[2] abbreviates: dose: 25.0 mg/kg/injection, schedule: Q01DX009 (ip), vehicle: saline with Tween-80.
The mark [3] stands for this setting: dose: 50.0 mg/kg/injection, schedule: Q01DX009 (ip), vehicle: saline with Tween-80.
Setting [4] is: dose: 100.0 mg/kg/injection, schedule: Q01DX009 (ip), vehicle: saline with Tween-80.
The mark [5] stands for this setting: dose: 200.0 mg/kg/injection, schedule: Q01DX009 (ip), vehicle: saline with Tween-80.
Setting [6] is: dose: 25.0 mg/kg/injection, schedule: Q01DX009 (ip), vehicle: Klucel (hydroxypropylcellulose) (HPC).
The mark [7] stands for this setting: dose: 50.0 mg/kg/injection, schedule: Q01DX009 (ip), vehicle: Klucel (hydroxypropylcellulose) (HPC).
[8] abbreviates: dose: 100.0 mg/kg/injection, schedule: Q01DX009 (ip), vehicle: Klucel (hydroxypropylcellulose) (HPC).
Where [9] appears, read: dose: 200.0 mg/kg/injection, schedule: Q01DX009 (ip), vehicle: Klucel (hydroxypropylcellulose) (HPC).
Setting [10] is: dose: 400.0 mg/kg/injection, schedule: Q01DX009 (ip), vehicle: Klucel (hydroxypropylcellulose) (HPC).
The mark [11] stands for this setting: dose: 50.0 mg/kg/injection, schedule: Q01DX009 (ip), vehicle: saline.
Where [12] appears, read: dose: 100.0 mg/kg/injection, schedule: Q01DX009 (ip), vehicle: saline.
The mark [13] stands for this setting: dose: 200.0 mg/kg/injection, schedule: Q01DX009 (ip), vehicle: saline.
Where [14] appears, read: dose: 400.0 mg/kg/injection, schedule: Q01DX009 (ip), vehicle: saline.
[15] abbreviates: dose: 12.5 mg/kg/injection, schedule: Q01DX009 (ip), vehicle: Klucel (hydroxypropylcellulose) (HPC).

Consider `Cc1cc(=NO)cc(C)n1O`, for which the T/C (dose: 25.0 mg/kg/injection, schedule: Q01DX009 (ip), vehicle: distilled water + alcohol) is 100 % of control; the T/C (dose: 50.0 mg/kg/injection, schedule: Q01DX009 (ip), vehicle: distilled water + alcohol) was 98 % of control; the T/C (dose: 200.0 mg/kg/injection, schedule: Q01DX009 (ip), vehicle: distilled water + alcohol) was 86 % of control.

`C#CCOCC(O)CN` (configuration not stated): the T/C is, setting by setting: (dose: 100.0 mg/kg/injection, schedule: Q04DX003 (ip), vehicle: saline) 104 % of control; (dose: 200.0 mg/kg/injection, schedule: Q04DX003 (ip), vehicle: saline) 100 % of control; (dose: 400.0 mg/kg/injection, schedule: Q04DX003 (ip), vehicle: saline) 102 % of control.

For the compound `O=[N+]([O-])c1ccc(CSc2ncnc3c2ncn3C2OC(CO)C(O)C2O)cc1` (configuration not stated), the T/C reads like this: (dose: 3.13 mg/kg/injection, schedule: Q01DX009 (ip), vehicle: saline with Tween-80) 90 % of control; (dose: 6.25 mg/kg/injection, schedule: Q01DX009 (ip), vehicle: saline with Tween-80) 90 % of control; under setting [1], 90 % of control; under setting [2], 86 % of control; under setting [3], 86 % of control; under setting [4], 79 % of control. Also, under setting [5], the T/C is 75 % of control.

For the compound `CN(C1=NS(=O)(=O)N=C(N(C)c2ccccc2)O1)c1ccccc1`, the T/C is 101 % of control under setting [6]; 108 % of control under setting [7]; 96 % of control under setting [8]; 93 % of control under setting [9]; 87 % of control under setting [10].

As to `c1ccc(CCN2CCC(CCc3c[nH]c4ccccc34)CC2)cc1`, the T/C is, setting by setting: under setting [1], 90 % of control; under setting [2], 103 % of control; under setting [3], 94 % of control.

`COc1cc2c(cc1OC)C1=CC(=O)N3CCCC34OS(=O)OC14CC2` (configuration not stated): the T/C under setting [8] is 110 % of control, the T/C under setting [9] is 103 % of control and the T/C under setting [10] was 101 % of control.

Turning to `OCCCN1CCCCC1CO` (configuration not stated), the T/C is, setting by setting: (dose: 12.5 mg/kg/injection, schedule: Q01DX009 (ip), vehicle: saline) 101 % of control; (dose: 25.0 mg/kg/injection, schedule: Q01DX009 (ip), vehicle: saline) 99 % of control; under setting [11], 103 % of control; under setting [12], 90 % of control; under setting [13], 116 % of control; under setting [14], 115 % of control.

Turning to `ClCCCCCCCCCCc1ccccc1`, the T/C was 90 % of control under setting [15], 90 % of control under setting [6] and 89 % of control under setting [7].

For the compound `C/C=C(\C)c1cc(=O)c2c(C)cc3c(c2o1)C(=O)c1c(O)c(C2CC(C)(N(C)C)C(O)C(C)O2)cc(C2CC(N(C)C)C(O)C(C)O2)c1C3=O` (configuration not stated), the T/C reads like this: (dose: 0.5 mg/kg/injection, schedule: Q01DX009 (ip), vehicle: Klucel (hydroxypropylcellulose) (HPC)) 104 % of control; (dose: 31.0 micrograms/kg/injection, schedule: Q01DX009 (ip), vehicle: saline) 102 % of control; (dose: 39.06 micrograms/kg/injection, schedule: Q01DX009 (ip), vehicle: saline) 123 % of control; (dose: 62.0 micrograms/kg/injection, schedule: Q01DX009 (ip), vehicle: saline) 113 % of control; (dose: 156.0 micrograms/kg/injection, schedule: Q01DX009 (ip), vehicle: saline) 118 % of control; (dose: 250.0 micrograms/kg/injection, schedule: Q01DX009 (ip), vehicle: saline) 105 % of control. For the same compound, the T/C (dose: 312.5 micrograms/kg/injection, schedule: Q01DX009 (ip), vehicle: saline) was 122 % of control; the T/C (dose: 625.0 micrograms/kg/injection, schedule: Q01DX009 (ip), vehicle: saline) is 94 % of control and 100 % of control.

For `CC[C@@]1(O)C[C@H](OC2CC(N(C)C)C(OC3CC(O)C(OC4CC(O)C(O)C(C)O4)C(C)O3)C(C)O2)c2c(cc3c(c2O)C(=O)c2c(O)ccc(O)c2C3=O)[C@H]1C(=O)OC` (some centres not stated), the T/C reads like this: (dose: 0.03 mg/kg/injection, schedule: Q01DX001 (ip), vehicle: saline) 105 % of control; (dose: 0.05 mg/kg/injection, schedule: Q01DX001 (ip), vehicle: saline) 118 % of control; (dose: 0.1 mg/kg/injection, schedule: Q01DX001 (ip), vehicle: saline) 119 % of control; (dose: 0.25 mg/kg/injection, schedule: Q01DX009 (ip), vehicle: other) 161 % of control; (dose: 0.5 mg/kg/injection, schedule: Q01DX009 (ip), vehicle: other) 161 % of control; (dose: 0.8 mg/kg/injection, schedule: Q01DX001 (ip), vehicle: saline) 163 % of control. The T/C is 210 % of control (dose: 1.0 mg/kg/injection, schedule: Q01DX009 (ip), vehicle: alcohol); 188 % of control (dose: 1.0 mg/kg/injection, schedule: Q01DX009 (ip), vehicle: other); 168 % of control (dose: 1.6 mg/kg/injection, schedule: Q01DX001 (ip), vehicle: saline); 216 % of control (dose: 2.0 mg/kg/injection, schedule: Q01DX009 (ip), vehicle: alcohol); 106 % of control (dose: 2.16 mg/kg/injection, schedule: Q01DX001 (ip), vehicle: water); 97 % of control (dose: 3.6 mg/kg/injection, schedule: Q01DX001 (ip), vehicle: water). In addition, the T/C is, setting by setting: (dose: 6.0 mg/kg/injection, schedule: Q01DX001 (ip), vehicle: water) 100 % of control; (dose: 10.0 mg/kg/injection, schedule: Q01DX001 (ip), vehicle: water) 89 % of control.

As to `Cc1ncc(CO)c(CO)c1O`, the T/C runs as follows: under setting [11], 100 % of control; (dose: 50.0 mg/kg/injection, schedule: Q08HX018 (ip), vehicle: saline) 101 % of control; under setting [12], 100 % of control; (dose: 100.0 mg/kg/injection, schedule: Q08HX018 (ip), vehicle: saline) 99 % of control; under setting [13], 100 % of control; (dose: 200.0 mg/kg/injection, schedule: Q08HX018 (ip), vehicle: saline) 95 % of control. Besides, the T/C was 91 % of control under setting [14]; 92 % of control (dose: 400.0 mg/kg/injection, schedule: Q08HX018 (ip), vehicle: saline); 87 % of control (dose: 800.0 mg/kg/injection, schedule: Q01DX009 (ip), vehicle: saline); 89 % of control (dose: 800.0 mg/kg/injection, schedule: Q08HX018 (ip), vehicle: saline).

In the case of `Nc1ncn(C2OC(CO)C(O)C2O)c(=O)n1` (configuration not stated), the T/C (dose: 0.25 mg/kg/injection, schedule: Q01DX009 (ip), vehicle: suspension in saline) was 90 % of control; the T/C (dose: 0.5 mg/kg/injection, schedule: Q01DX009 (ip), vehicle: suspension in saline) was 112 % of control; the T/C (dose: 0.75 mg/kg/injection, schedule: Q01DX009 (ip), vehicle: saline with Tween-80) was 118 % of control; the T/C (dose: 1.0 mg/kg/injection, schedule: Q01DX009 (ip), vehicle: suspension in saline) is 91 % of control; the T/C (dose: 1.5 mg/kg/injection, schedule: Q01DX009 (ip), vehicle: saline with Tween-80) was 124 % of control; the T/C (dose: 2.0 mg/kg/injection, schedule: Q01DX009 (ip), vehicle: suspension in saline) is 92 % of control.

Regarding `CCOc1ccc2cc(S(=O)(=O)O)ccc2c1N`, the T/C was 95 % of control under setting [4]; 87 % of control under setting [5]; 95 % of control (dose: 400.0 mg/kg/injection, schedule: Q01DX009 (ip), vehicle: saline with Tween-80).

In the case of `COC(=O)c1cc([N+](=O)[O-])cc2ccccc12`, the T/C by setting is: under setting [7], 100 % of control; under setting [8], 97 % of control; under setting [9], 94 % of control.

For the compound `O=S(=O)(SC(S(=O)(=O)c1ccccc1)S(=O)(=O)c1ccccc1)c1ccccc1`, the T/C is 99 % of control under setting [15]; 99 % of control under setting [6]; 105 % of control under setting [7]; 107 % of control under setting [8]; 90 % of control under setting [9].
